Reference: patent US20210386752A1, “Uses of Electron Transport Chain Complex I or Complex II Inhibitors in Treating Cancer, Combination Therapies, and Diagnostic Methods Related Thereto” (Emory University, priority 2020, published 2021)
Read-outs that look alike come from different tables or passages of the source.

What was measured:
[1] = tested on: venetoclax-resistant MM lines; experiment: Venetoclax sensitization of resistant MM lines by ETC inhibitor cotreatment, viability by AnnexinV/DAPI staining; format: cell-based
Method: Cell viability assessed by AnnexinV/DAPI staining.
Given the unique role of Complex II in directly connecting the TCA cycle to the ETC, the impact of selectively inhibiting either the SDH or SQR activities of Complex II on venetoclax sensitivity was tested. The venetoclax sensitization effects of TTFA (SQR inhibitor) or 3NPA (SDH inhibitor) were tested on eight venetoclax-resistant MM lines (FIG. 3A-3H). 3NPA is a structural analog of succinate, which binds irreversibly with SDH inhibiting FAD reduction and fumarate production while TTFA is a direct Qp site inhibitor. […] The efficacy of the TTFA-venetoclax cotreatment strategy was also tested in a colony-forming unit assay. MM lines (L363 and KMS11) were cultured in an agar matrix with single agents or the combination.
To further inquire whether Complex I inhibition could also sensitize MM cells to venetoclax, a Complex I inhibitor was tested ([…]).

[2] = tested on: bone marrow plasma cells and memory B cells; conditions: murine immune system; cited from earlier work
[3] = tested on: non-MM cells contained within the aspirate
Method: Bone marrow aspirate samples from 50 MM patients were treated with three doses of venetoclax (0.01, 0.1 and 0.5 μM) or TTFA (100 μM), or the combination for 24 h and cell death was assessed by AnnexinV staining.
The efficacy of IACS-010759 in sensitizing was tested in […] patient samples to venetoclax.

MM = experiment: IACS-010759 in combination with anti-myeloma agents, cell death in MM cells; format: cell-based
ATF4, NOXA = experiment: Immunoblot of whole cell lysates for ATF4 and NOXA; format: cell-based; conditions: 25 nM IACS-010759, 24 h
MCL-1 = MCL-1 expression in MM cells; format: cell-based; conditions: KMS12PE
[4] = tested on: CD38+ CD45− gated MM cells from myeloma patient bone marrow aspirates; experiment: Ex vivo venetoclax sensitivity of myeloma patient samples, Annexin V staining; format: cell-based, human; conditions: nine patient samples, IACS-010759
Method: CD38-PE and CD45-APC-Cy7 were used to gate myeloma cells. n=50 biological independent samples.
Bone marrow aspirate samples from 50 MM patients were treated with three doses of venetoclax (0.01, 0.1 and 0.5 μM) or TTFA (100 μM), or the combination for 24 h and cell death was assessed by AnnexinV staining. […] A venetoclax ICso <0.1 μM is characterized as a sensitive sample.
Bone marrow aspirates or peripheral blood samples from consenting myeloma patients were diluted to 25 mL with PBS and over laid on lymphocyte separation media. Following centrifugation, the collected buffy coat was washed with PBS and resuspended in culture medium. Cells subject to various treatments were stained with anti-CD38-phyocerythrin and anti-CD45-allophycocyanin-Cy7 to identify MM cells. CD138+ cells were purified using MACS CD138+ human microbeads. IC50S of venetoclax alone or in combination with TTFA/IACS-010759 in myeloma samples were calculated using nonlinear regression (curve-fit) analysis under agonist vs. normalized response with variable slope.

AML = conditions: targeting Complex II; cited from earlier work
L363, KMS11 and KMS21BM = experiment: ATP levels after ETC complex III, IV, V inhibition; format: cell-based; conditions: after 24 h, at the doses used
Method: Experiments were performed to determine whether inhibition of Complex III, IV and V could also sensitize resistant MINI to venetoclax.

MM patients = conditions: cited from earlier work
MM cell lines = experiment: Cell death of MM cell lines with single-agent venetoclax, AnnexinV/DAPI flow cytometric staining; format: cell-based; conditions: 0.5 μM venetoclax, 24 h, panel of MM lines
Method: Percent live normalized to vehicle control, with cell lines grouped by sensitivity. n=3 independent experiments.
Differential venetoclax sensitivity was assessed in a panel of MM lines. […] The pattern of increased sensitivity of these cell lines was selective for venetoclax and not detected with other standard myeloma therapeutics i.e. bortezomib and melphalan or sensitivity to the MCL-1 inhibitor […] as reported for the KMS12BM, KMS12PE, KMS11, MM.1 S, JJN3, RPMI-8226 and L363 lines.

[5] = L363, KMS11, KMS21BM, doses reducing ATP by about 50% after 24 h

## O=C(O)CC[N+](=O)[O-] [3NPA]
[1]; eight venetoclax-resistant MM lines, 24 h
  sensitivity to venetoclax on cotreatment: less effective compared to TTFA

## CN(C)CC[C@H](CSc1ccccc1)Nc1ccc(S(=O)(=O)NC(=O)c2ccc(N3CCN(Cc4ccccc4-c4ccc(Cl)cc4)CC3)cc2)cc1[N+](=O)[O-] [ABT-737]
[2]
  effect on plasma cells and B cells: inhibits the establishment of newly arising bone marrow plasma cells and memory B cells with no effect on pre-existing plasma cells, or germinal center B cells

## Cc1nc(-c2nc(-c3ccc(OC(F)(F)F)cc3)no2)nn1Cc1cccc(N2CCC(S(C)(=O)=O)CC2)c1 [IACS-010759, 5-(5-methyl-1-(3-(4-(methylsulfonyl)piperidin-1-yl)benzyl)-1H-1,2,4-triazol-3-yl)-3-(4-(trifluoromethoxy)phenyl)-1,2,4-oxadiazole]
[3]
  viability of non-MM cells: minimal impact on the viability of non-MM cells
MM; 24 hr dose response
  effect on carfilzomib (CFZ) response: antagonizes MM to proteasome inhibitor carfilzomib
MM; L363, 24 hr treatment
  effect on bortezomib induced cell death: antagonizes MM to proteasome inhibitor bortezomib induced cell death
  effect on melphalan induced cell death: sensitizes myeloma to melphalan induced cell death
MM; MM
  effect on efficacy of dexamethasone + venetoclax: increases efficacy of dexamethasone (Dex) +Ven
  effect on sensitivity to dexamethasone: increases sensitivity of MM to Dex
MM; t(11;14) MM, KMS12PE, 24 hr Ven treatment
  sensitization to venetoclax (ABT-199): sensitizes t(11;14) MM to venetoclax
ATF4, NOXA
  protein expression of ATF4, NOXA: induction of ATF4 and NOXA
MCL-1
  MCL-1 expression: reduces MCL-1
[1]; 25 nM IACS-010759, tested cell lines
  IC50 of venetoclax on cotreatment: significantly reduced the IC50 of venetoclax
[1]; KMS11, L363, KMS21BM, increasing doses of IACS-010759, 24 h
  sensitization to 0.5 μM venetoclax: sensitized cells to 0.5 μM venetoclax
[1]; KMS21BM, TTFA at 100 μM
  sensitization to venetoclax: enough to sensitize KMS21BM to venetoclax
[4]
  samples with >50% reduction in the IC50 of venetoclax: five of the samples
  samples with increased venetoclax sensitivity: Eight out of nine samples showed increased sensitivity

## Nc1ncn([C@@H]2O[C@H](CO)[C@@H](O)[C@H]2O)c(=O)n1 [azacitidine]
AML
  venetoclax sensitivity: induced venetoclax sensitivity

## CC[C@H]1/C=C/C=C/C[C@@H](C)[C@H](O)[C@@](C)(O)C(=O)[C@@H](C)[C@H](O)[C@@H](C)C(=O)[C@@H](C)[C@H](O)[C@@H](C)/C=C/C(=O)O[C@@H]2[C@H](C)[C@H](CC1)O[C@]1(CC[C@H](C)[C@H](C[C@@H](C)O)O1)[C@H]2C [oligomycin]
L363, KMS11 and KMS21BM
  reduction of ATP levels: about 50%
[1]; [5]
  sensitization to venetoclax: sensitized L363, KMS11 and KMS21BM to venetoclax

## C/C=C(\C)[C@H](O)[C@H](C)/C=C(C)/C=C/C/C(C)=C/Cc1nc(OC)c(OC)c(O)c1C [piericidin]
[1]; resistant MM cell lines, Complex I inhibitor
  sensitization to venetoclax: also sensitized resistant MM cell lines to venetoclax

## [N-]=[N+]=[N-] [sodium azide]
L363, KMS11 and KMS21BM
  reduction of ATP levels: about 50%

## CC1(C)CCC(CN2CCN(c3ccc(C(=O)NS(=O)(=O)c4ccc(NCC5CCOCC5)c([N+](=O)[O-])c4)c(Oc4cnc5[nH]ccc5c4)c3)CC2)=C(c2ccc(Cl)cc2)C1 [venetoclax, 2-((1H-pyrrolo[2,3-b]pyridin-5-yl)oxy)-4-(4-((4′-chloro-5,5-dimethyl-3,4,5,6-tetrahydro-[1,1′-biphenyl]-2-yl)methyl)piperazin-1-yl)-N-((3-nitro-4-(((tetrahydro-2H-pyran-4-yl)methyl)amino)phenyl)sulfonyl)benzamide]
MM patients; all MM patients
  fraction of MM patients responding to single agent: approximately 7%
MM patients; non-t(11;14) patients
  fraction of patients venetoclax sensitive: < 6%
MM patients; t(11;14) patients
  fraction of patients venetoclax sensitive: ~40%
MM cell lines
  cytotoxicity (cell death): significant cytotoxicity primarily in t(11;14) lines

## antimycin
L363, KMS11 and KMS21BM
  reduction of ATP levels: about 50%
[1]; [5]
  sensitization to venetoclax: sensitized L363, KMS11 and KMS21BM to venetoclax
